Source: patent publication US20060051754A1, “Transporter selectively transporting sulfate conjugate and its gene” (Japan Science and Technology Agency, priority 2002, published 2006)
Structures can show the parent of a compound that is named as a salt.

Experiments:
Format in all cases: cell-based
human OAT7 [1] = biological target: T1, human OAT7 (Homo sapiens, UniProt Q8IVM8); assay: inhibition of [3H]estrone-sulfate conjugate uptake by OAT7-expressing oocyte (substrate selectivity); conditions: [3H]estrone-sulfate conjugate 1 μM, 100 μM of unlabeled compound; FIGS. 8, 9, 10A and 10B
T1 construct: expressed in transfected cells
Experimental: (§1) A substrate uptake experiment was performed on the oocyte into which the human OAT7 gene cRNA was injected and a control oocyte into which water was injected, using the [^3H]estrone-sulfate conjugate and the [^3H]dehydroepiandrosterone-sulfate conjugate as the substrates in accordance with the method of Kanai et al. (Kanai and Hediger, Nature, Vol. 360, pp. 467 to 471, 1992) as described below. After leaving the oocyte in an ND96 solution (96 mM sodium chloride, 2 mM potassium chloride, 1.8 mM calcium chloride, 1 mM magnesium chloride, 5 mM HEPES, pH7.4) containing the [^3H]estrone-sulfate conjugate (50 nM) and the [^3H]dehydroepiandrosterone-sulfate conjugate (100 nM) as a substrate for 60 minutes, and an uptake ratio of the substrate was measured by way of counting radioactivity taken up into the cells.
In the [^3H]estrone-sulfate conjugate uptake experiment using an oocyte into which the human OAT7 gene cRNA was injected, the effect of addition of various organic anions and organic cations on the system was examined.
The [^3H]estrone-sulfate conjugate uptake experiment was conducted using the oocyte into which the human OAT7 gene cRNA was injected and in accordance with the method described in Example 2(1). In the experiment, [^3H]estrone-sulfate conjugate (1 μM) uptake was measured under the presence and the absence of 100 μM of various compounds (unlabeled).
Since OAT7 is the organic anion transporter existing in the liver, effects of various organic anions which are considered to be transported in the hepatic cells on the [^3H]estrone-sulfate conjugate uptake by way of OAT7 were examined.
In order to clarify which one of the sulfate conjugate, the glucuronide conjugate, the glutathione conjugate is accepted by OAT7, effects of various conjugate compounds on the [^3H]estrone-sulfate conjugate uptake were examined.

human OAT7 [2] = biological target: T1, human OAT7; assay: substrate uptake experiment by oocyte into which the human OAT7 gene cRNA was injected
Experimental: After expressing the human OAT7 gene cRNA in an oocyte, [^3H]estrone-sulfate conjugate uptake and [^3H]dehydroepiandrosterone-sulfate conjugate uptake were measured.
After injecting 20 ng of the human OAT7 gene cRNA into the oocyte to be expressed, a 3-days culture was performed.
as §1
Time passage of the substrate uptake by the oocyte into which the human OAT7 gene cRNA was injected and a control oocyte into which water was injected was observed using the [^3H]estrone-sulfate conjugate (50 nM) as the substrate and in accordance with the method of Example 2(1).
The effect of salt added in the culture used in the [^3H]estrone-sulfate conjugate (50 nM) uptake experiment were examined using an oocyte into which the human OAT7 gene cRNA was injected and a control oocyte into which water was injected.
The [^3H]estrone-sulfate conjugate uptake experiment was conducted in accordance with the method described in Example 2(1) using the oocyte into which the human OAT7 gene cRNA was injected. In the experiment, a sodium ion free absorption solution (wherein 96 mM sodium chloride was substituted with 96 mM choline chloride) was used as an uptake solution in place of the standard absorption solution for the purpose of observing the effect of the sodium ion.

human OAT7 [3] = biological target: T1, human OAT7; assay: Michaelis-Menten kinetics test on OAT7 (oocyte uptake); conditions: mean±standard error; OAT7-expressing oocyte; FIGS. 7A and 7B
Experimental: as §1
A Michaelis-Menten kinetics test on the liver specific organic anion transporter OAT7 selectively transporting a sulfate conjugate was conducted. The Michaelis-Menten kinetics test on OAT7 was performed by examining changes in uptake ratio of the substrate [^3H]estrone-sulfate conjugate and the [^3H]dehydroepiandrosterone-sulfate conjugate depending on the concentrations of the substrate [^3H]estrone-sulfate conjugate and the [^3H]dehydroepiandrosterone-sulfate conjugate. […]

T1 sequence (Q8IVM8 whole entry): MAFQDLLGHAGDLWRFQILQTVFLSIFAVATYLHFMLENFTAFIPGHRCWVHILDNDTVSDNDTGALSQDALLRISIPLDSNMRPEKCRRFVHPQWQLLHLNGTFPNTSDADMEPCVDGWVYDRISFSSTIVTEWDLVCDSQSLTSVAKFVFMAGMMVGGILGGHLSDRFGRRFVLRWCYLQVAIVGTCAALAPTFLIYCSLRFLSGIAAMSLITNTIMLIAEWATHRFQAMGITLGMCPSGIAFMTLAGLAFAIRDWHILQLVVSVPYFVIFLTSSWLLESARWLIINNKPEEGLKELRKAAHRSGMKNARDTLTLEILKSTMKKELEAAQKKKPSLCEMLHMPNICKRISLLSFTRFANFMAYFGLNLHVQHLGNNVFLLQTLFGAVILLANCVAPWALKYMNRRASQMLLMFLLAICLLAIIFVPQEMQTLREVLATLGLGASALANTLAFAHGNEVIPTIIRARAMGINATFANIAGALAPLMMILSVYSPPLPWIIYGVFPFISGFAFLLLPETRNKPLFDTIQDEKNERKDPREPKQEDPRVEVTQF

Structure (SMILES) | cys-inhibition effect on [3H]estrone-sulfate conjugate uptake (human OAT7 [1]) | also measured
Cc1cc(=O)oc2cc(OS(=O)(=O)O)ccc12 [4-methylumbelliferyl sulfate conjugate] | significant cys-inhibition effect | 
C[C@]12CC[C@H](OS(=O)(=O)O)CC1=CC[C@@H]1[C@@H]2CC[C@]2(C)C(=O)CC[C@@H]12 [dehydroepiandrosterone-sulfate conjugate] | significant cys-inhibition effect | [3H]dehydroepiandrosterone-sulfate conjugate uptake by oocytes in which OAT7 was expressed vs control oocyte into which water was injected (human OAT7 [2]; substrate 100 nM, ND96 solution pH7.4, 60 minutes, FIG. 6A): significantly greater; Km (human OAT7 [3]): 2.2 ± 0.3 µM
C[C@]12CC[C@@H]3c4ccc(OS(=O)(=O)O)cc4CC[C@H]3[C@@H]1CCC2=O [estrone-sulfate conjugate] | significant cys-inhibition effect | [3H]estrone-sulfate conjugate uptake by oocytes in which OAT7 was expressed vs control oocyte into which water was injected (human OAT7 [2]; substrate 50 nM, ND96 solution pH7.4, 60 minutes, FIG. 6A): significantly greater; effect of change of extracellular sodium to choline on uptake (human OAT7 [2]; substrate 50 nM, 96 mM sodium chloride substituted with 96 mM choline chloride, FIG. 6C): no effect; time dependency of uptake by way of OAT7 (human OAT7 [2]; substrate 50 nM, FIG. 6B): increases substantially linearly in a time dependent manner till the passage of 120 minutes; Km (human OAT7 [3]): 8.7 ± 1.1 µM
CC1(C)C(/C=C/C=C/C=C/C=C2\N(CCCCS(=O)(=O)[O-])c3ccc4ccccc4c3C2(C)C)=[N+](CCCCS(=O)(=O)[O-])c2ccc3ccccc3c21.[Na+] [indocyanin green] | significant cys-inhibition effect | 
N=c1nc(N2CCCCC2)cc(N)n1OS(=O)(=O)O [minoxidil-sulfate conjugate] | significant cys-inhibition effect | 
O=[N+]([O-])c1ccc(OS(=O)(=O)O)cc1 [p-nitrophenol-sulfate conjugate] | significant cys-inhibition effect | 
O=C1OC(c2ccc(O)c(S(=O)(=O)O)c2)(c2ccc(O)c(S(=O)(=O)O)c2)c2c(Br)c(Br)c(Br)c(Br)c21 [sulfobromophthalein] | significant cys-inhibition effect | 
C[C@]12CC[C@@H]3c4ccc(OS(=O)(=O)O)cc4CC[C@H]3[C@@H]1CC[C@@H]2O [β-estradiol-sulfate conjugate] | significant cys-inhibition effect | 
